Measurements as given in ChEMBL document CHEMBL1743201, “Casarett and Doull's Toxicology The Basic Science of Poisons, 7th edition” (2008).

Legend:
Type in all cases: ADME
[1] = biological target: T1, Cytochrome P450 2B6 (Homo sapiens, UniProt P20813); assay: Clinically relevant substrates of human liver microsomal P450 enzymes, isoform CYP2B6; conditions: microsomes
T1 sequence (P20813 whole entry): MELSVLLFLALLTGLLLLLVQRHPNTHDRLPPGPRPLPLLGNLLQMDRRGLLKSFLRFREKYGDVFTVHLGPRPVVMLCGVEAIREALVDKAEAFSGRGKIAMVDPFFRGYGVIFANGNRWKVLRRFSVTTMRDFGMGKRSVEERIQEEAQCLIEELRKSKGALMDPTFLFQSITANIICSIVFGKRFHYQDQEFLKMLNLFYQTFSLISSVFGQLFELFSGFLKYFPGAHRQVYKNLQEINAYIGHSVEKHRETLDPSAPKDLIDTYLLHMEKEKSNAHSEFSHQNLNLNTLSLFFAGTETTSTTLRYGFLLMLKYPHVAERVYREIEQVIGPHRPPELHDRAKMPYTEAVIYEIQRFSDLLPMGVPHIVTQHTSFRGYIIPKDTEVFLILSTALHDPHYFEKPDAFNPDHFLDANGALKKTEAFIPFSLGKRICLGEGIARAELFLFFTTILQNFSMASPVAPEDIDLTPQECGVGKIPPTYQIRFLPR

[2] = biological target: Cytochrome P450 2C9 (Homo sapiens, UniProt P11712); assay: Clinically relevant inhibitors of human liver microsomal P450 enzymes, isoform CYP2C9; conditions: microsomes
[3] = biological target: Sulfotransferase 1C4 (Homo sapiens, UniProt O75897); assay: Major substrate of human cytosolic sulfotransferase SULT1C4
[4] = biological target: Sulfotransferase 1A1 (Homo sapiens, UniProt P50225); assay: Major substrate of human cytosolic sulfotransferase SULT1A1
[5] = biological target: T2, UDP-glucuronosyltransferase 1A1 (Homo sapiens, UniProt P22309); assay: Substrate of human UDP-glucuronosyltransferase UGT1A1
T2 sequence (P22309 whole entry): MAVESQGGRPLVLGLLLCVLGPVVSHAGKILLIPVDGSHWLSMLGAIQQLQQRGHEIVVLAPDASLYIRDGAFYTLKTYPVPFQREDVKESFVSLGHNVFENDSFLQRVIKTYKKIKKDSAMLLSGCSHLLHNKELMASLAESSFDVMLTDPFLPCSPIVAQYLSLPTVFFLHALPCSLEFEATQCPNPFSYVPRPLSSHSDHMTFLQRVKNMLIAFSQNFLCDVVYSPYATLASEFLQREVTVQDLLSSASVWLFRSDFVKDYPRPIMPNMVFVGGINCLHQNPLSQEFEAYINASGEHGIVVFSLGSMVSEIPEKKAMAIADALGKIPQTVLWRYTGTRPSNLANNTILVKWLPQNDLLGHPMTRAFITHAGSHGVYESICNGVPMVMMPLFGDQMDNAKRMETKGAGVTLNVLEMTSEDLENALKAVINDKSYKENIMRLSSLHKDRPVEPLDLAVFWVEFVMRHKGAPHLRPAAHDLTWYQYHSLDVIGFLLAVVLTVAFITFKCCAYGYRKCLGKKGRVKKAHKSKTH

[6] = biological target: T3, UDP-glucuronosyltransferase 1A6 (Homo sapiens, UniProt P19224); assay: Substrate of human UDP-glucuronosyltransferase UGT1A6
T3 sequence (P19224 whole entry): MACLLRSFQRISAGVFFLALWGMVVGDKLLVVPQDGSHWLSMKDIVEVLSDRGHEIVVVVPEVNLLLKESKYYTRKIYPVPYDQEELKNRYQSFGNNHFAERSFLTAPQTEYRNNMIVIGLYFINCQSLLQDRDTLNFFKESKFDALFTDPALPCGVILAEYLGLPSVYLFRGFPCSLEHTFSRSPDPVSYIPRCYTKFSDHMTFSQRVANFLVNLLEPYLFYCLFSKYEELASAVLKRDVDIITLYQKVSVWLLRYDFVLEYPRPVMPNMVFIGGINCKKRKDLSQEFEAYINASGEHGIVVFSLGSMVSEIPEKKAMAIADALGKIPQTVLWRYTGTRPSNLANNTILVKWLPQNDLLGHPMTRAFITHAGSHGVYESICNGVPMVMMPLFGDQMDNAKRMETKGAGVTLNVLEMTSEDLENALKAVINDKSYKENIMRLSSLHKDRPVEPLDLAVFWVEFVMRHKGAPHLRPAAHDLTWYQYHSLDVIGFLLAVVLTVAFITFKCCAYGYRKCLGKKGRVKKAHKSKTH

[7] = biological target: T4, UDP-glucuronosyltransferase 1A9 (Homo sapiens, UniProt O60656); assay: Substrate of human UDP-glucuronosyltransferase UGT1A9
T4 sequence (O60656 whole entry): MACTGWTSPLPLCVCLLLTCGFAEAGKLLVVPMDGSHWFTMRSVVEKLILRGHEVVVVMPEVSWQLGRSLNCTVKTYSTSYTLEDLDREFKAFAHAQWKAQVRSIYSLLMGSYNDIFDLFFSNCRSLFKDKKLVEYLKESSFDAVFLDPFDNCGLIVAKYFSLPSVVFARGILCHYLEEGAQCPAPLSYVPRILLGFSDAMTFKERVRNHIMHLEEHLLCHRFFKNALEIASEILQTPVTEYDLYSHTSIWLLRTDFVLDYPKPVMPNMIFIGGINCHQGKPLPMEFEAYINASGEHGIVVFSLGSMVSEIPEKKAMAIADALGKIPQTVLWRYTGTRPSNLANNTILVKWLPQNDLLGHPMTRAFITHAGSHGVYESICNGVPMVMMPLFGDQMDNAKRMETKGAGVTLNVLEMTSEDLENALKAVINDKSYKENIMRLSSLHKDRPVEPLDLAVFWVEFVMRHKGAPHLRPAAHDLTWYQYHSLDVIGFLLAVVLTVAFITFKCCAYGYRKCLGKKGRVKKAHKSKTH

[8] = biological target: Glutathione S-transferase P (Homo sapiens, UniProt P09211); assay: Substrates for human cytosolic glutathione transferase GSTP1
[9] = biological target: T5, Glutathione S-transferase A1 (Homo sapiens, UniProt P08263); assay: Substrates for human cytosolic glutathione transferase GSTA1
T5 sequence (P08263 whole entry): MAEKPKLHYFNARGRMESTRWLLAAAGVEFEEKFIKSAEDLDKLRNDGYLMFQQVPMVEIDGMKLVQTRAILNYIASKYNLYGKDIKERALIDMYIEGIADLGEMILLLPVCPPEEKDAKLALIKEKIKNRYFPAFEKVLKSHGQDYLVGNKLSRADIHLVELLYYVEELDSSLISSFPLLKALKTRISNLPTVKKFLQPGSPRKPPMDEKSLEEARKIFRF

[10] = biological target: T6, Sulfotransferase 1E1 (Homo sapiens, UniProt P49888); assay: Major substrate of human cytosolic sulfotransferase SULT1E1
T6 sequence (P49888 whole entry): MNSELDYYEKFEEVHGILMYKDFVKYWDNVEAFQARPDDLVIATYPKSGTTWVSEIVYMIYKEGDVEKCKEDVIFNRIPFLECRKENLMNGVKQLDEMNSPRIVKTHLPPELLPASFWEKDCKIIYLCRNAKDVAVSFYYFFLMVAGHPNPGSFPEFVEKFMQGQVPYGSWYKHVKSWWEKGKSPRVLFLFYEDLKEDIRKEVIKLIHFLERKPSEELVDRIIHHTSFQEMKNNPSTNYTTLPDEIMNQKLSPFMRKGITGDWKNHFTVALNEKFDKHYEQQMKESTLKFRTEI

[11] = biological target: T7, UDP-glucuronosyltransferase 1A3 (Homo sapiens, UniProt P35503); assay: Substrate of human UDP-glucuronosyltransferase UGT1A3
T7 sequence (P35503 whole entry): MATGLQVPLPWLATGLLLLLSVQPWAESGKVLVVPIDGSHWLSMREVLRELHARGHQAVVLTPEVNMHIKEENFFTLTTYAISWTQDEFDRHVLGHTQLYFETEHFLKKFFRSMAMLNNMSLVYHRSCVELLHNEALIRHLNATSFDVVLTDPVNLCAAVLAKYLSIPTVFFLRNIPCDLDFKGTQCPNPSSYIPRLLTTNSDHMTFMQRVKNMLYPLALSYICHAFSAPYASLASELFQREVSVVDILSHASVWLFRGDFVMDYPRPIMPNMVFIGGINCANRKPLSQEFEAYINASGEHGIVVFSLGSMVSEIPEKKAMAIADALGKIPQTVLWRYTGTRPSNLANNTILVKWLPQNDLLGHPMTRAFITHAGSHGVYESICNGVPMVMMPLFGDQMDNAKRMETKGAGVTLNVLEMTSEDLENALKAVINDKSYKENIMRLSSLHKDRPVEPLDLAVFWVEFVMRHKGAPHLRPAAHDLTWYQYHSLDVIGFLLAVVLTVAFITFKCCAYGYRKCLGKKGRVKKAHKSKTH

[12] = biological target: T8, UDP-glucuronosyltransferase 2B7 (Homo sapiens, UniProt P16662); assay: Substrate of human UDP-glucuronosyltransferase UGT2B7
T8 sequence (P16662 whole entry): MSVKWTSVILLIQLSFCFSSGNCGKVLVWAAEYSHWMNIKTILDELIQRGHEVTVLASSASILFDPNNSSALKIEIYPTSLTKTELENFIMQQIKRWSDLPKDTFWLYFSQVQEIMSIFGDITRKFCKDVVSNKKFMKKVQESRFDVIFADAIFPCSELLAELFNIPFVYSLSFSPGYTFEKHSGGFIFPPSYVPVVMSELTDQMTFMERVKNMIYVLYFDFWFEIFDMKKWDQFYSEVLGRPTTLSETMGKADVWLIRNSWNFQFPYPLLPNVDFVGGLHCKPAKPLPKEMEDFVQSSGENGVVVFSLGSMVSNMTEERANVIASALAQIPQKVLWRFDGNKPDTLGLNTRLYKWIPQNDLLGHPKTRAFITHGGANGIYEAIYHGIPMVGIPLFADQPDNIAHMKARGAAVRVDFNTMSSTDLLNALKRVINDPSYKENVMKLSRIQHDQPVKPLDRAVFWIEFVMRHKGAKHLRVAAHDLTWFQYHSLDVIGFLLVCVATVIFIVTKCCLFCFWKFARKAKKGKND

Sulfotransferase 1C4, sequence (O75897 whole entry): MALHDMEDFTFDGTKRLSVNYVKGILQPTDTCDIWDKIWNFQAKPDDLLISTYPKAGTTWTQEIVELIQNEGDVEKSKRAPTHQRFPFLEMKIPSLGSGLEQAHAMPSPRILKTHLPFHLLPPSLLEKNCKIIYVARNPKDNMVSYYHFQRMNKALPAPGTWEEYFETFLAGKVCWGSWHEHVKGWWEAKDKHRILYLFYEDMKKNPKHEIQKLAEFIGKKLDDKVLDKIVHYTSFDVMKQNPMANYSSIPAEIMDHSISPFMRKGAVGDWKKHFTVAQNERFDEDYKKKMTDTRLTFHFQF
Glutathione S-transferase P, sequence (P09211 whole entry): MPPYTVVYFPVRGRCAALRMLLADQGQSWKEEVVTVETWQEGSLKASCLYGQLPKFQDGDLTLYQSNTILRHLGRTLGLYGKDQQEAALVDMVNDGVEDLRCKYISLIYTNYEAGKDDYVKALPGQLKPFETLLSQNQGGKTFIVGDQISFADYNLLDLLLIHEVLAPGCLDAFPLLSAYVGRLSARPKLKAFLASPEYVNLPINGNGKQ
Cytochrome P450 2C9, sequence (P11712 whole entry, canonical isoform): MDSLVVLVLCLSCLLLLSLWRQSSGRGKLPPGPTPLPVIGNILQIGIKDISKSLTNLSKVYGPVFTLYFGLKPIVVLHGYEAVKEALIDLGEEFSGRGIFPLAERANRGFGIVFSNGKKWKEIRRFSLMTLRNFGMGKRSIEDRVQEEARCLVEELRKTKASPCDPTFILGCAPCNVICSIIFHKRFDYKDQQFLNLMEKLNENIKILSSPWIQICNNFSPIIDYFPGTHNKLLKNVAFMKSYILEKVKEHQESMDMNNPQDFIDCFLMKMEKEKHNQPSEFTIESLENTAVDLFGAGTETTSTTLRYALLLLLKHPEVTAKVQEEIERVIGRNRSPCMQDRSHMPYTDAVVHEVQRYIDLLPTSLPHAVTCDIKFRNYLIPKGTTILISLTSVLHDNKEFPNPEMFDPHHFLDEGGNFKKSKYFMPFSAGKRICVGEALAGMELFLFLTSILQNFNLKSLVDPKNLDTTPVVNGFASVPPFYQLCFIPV
Sulfotransferase 1A1, sequence (P50225 whole entry): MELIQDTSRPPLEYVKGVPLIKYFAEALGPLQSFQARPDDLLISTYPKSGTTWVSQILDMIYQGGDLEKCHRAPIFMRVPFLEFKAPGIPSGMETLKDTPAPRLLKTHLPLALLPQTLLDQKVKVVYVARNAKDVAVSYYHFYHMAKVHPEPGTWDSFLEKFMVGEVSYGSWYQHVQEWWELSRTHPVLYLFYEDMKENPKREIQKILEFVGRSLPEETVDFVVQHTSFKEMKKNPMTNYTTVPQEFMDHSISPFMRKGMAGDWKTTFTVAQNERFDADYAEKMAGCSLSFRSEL

CC[C@@]1(c2ccccc2)NC(=O)N(C)C1=O
Activity [1]: Substrate

O=C(O)COc1ccc(C(=O)c2cccs2)c(Cl)c1Cl
Activity [2]: Inhibitor

CCCCCCCCCc1ccc(O)cc1 [4-NONYLPHENOL]
Activity [3]: Substrate

CC(=O)Nc1ccc(O)cc1 [ACETAMINOPHEN]
Activity [4]: Substrate
Activity [5]: Substrate
Activity [6]: Substrate
Activity [7]: Substrate

C=CC=O [ACROLEIN]
Activity [8]: Substrate

C=CC1=C(C)/C(=C/c2[nH]c(Cc3[nH]c(/C=C4\NC(=O)C(C)=C4C=C)c(C)c3CCC(=O)O)c(CCC(=O)O)c2C)NC1=O [BILIRUBIN]
Activity [5]: Substrate

CC(C)(c1ccc(O)cc1)c1ccc(O)cc1 [BISPHENOL A]
Activity [3]: Substrate

CCCCCOC(=O)Nc1nc(=O)n([C@@H]2O[C@H](C)[C@@H](O)[C@H]2O)cc1F [CAPECITABINE]
Activity [2]: Inhibitor

O=C(O)CCCc1ccc(N(CCCl)CCCl)cc1 [CHLORAMBUCIL]
Activity [9]: Substrate
Activity [8]: Substrate

O=P1(N(CCCl)CCCl)NCCCO1 (stereo not drawn) [CYCLOPHOSPHAMIDE ANHYDROUS]
Activity [1]: Substrate

CC/C(=C(/CC)c1ccc(O)cc1)c1ccc(O)cc1 [DIETHYLSTILBESTROL]
Activity [3]: Substrate
Activity [10]: Substrate

O=C1Nc2ccc(Cl)cc2[C@@](C#CC2CC2)(C(F)(F)F)O1 [EFAVIRENZ]
Activity [1]: Substrate

C[C@]12CC[C@@H]3c4ccc(O)cc4CC[C@H]3[C@@H]1CC[C@@H]2O[C@@H]1O[C@H](C(=O)O)[C@@H](O)[C@H](O)[C@H]1O [ESTRADIOL 17B GLUCURONIDE]
Activity [5]: Substrate

C#C[C@]1(O)CC[C@H]2[C@@H]3CCc4cc(O)ccc4[C@H]3CC[C@@]21C [ETHINYL ESTRADIOL]
Activity [10]: Substrate
Activity [5]: Substrate

O=C1[C@H](CC[C@H](O)c2ccc(F)cc2)[C@@H](c2ccc(O)cc2)N1c1ccc(F)cc1 [EZETIMIBE]
Activity [11]: Substrate

CC(C(=O)O)c1cccc(Oc2ccccc2)c1 (stereo not drawn) [FENOPROFEN]
Activity [11]: Substrate
Activity [7]: Substrate

OC(Cn1cncn1)(Cn1cncn1)c1ccc(F)cc1F [FLUCONAZOLE]
Activity [2]: Inhibitor

Cc1cc(=O)oc2cc(O)ccc12 [HYMECROMONE]
Activity [6]: Substrate

CNC1(c2ccccc2Cl)CCCCC1=O (stereo not drawn) [KETAMINE]
Activity [1]: Substrate

CC(C(=O)O)c1cccc(C(=O)c2ccccc2)c1 (stereo not drawn) [KETOPROFEN]
Activity [11]: Substrate
Activity [7]: Substrate
Activity [12]: Substrate

CN1CCC(=C2c3ccccc3CC(=O)c3sccc32)CC1 [KETOTIFEN]
Activity [11]: Substrate

CCOC(=O)C1(c2ccccc2)CCN(C)CC1 [MEPERIDINE]
Activity [1]: Substrate

COc1ccc2cc([C@H](C)C(=O)O)ccc2c1 [NAPROXEN]
Activity [11]: Substrate
Activity [7]: Substrate

Cc1ccnc2c1NC(=O)c1cccnc1N2C1CC1 [NEVIRAPINE]
Activity [1]: Substrate

C[C@]12COC(=O)C[C@@H]1CC[C@@H]1[C@@H]2CC[C@@]2(C)[C@H]1CC[C@]2(C)O [OXANDROLONE]
Activity [2]: Inhibitor

NCCc1c[nH]c2ccc(O)cc12 [SEROTONIN]
Activity [6]: Substrate

Nc1ccc(S(=O)(=O)Nc2ccnn2-c2ccccc2)cc1 [SULFAPHENAZOLE]
Activity [2]: Inhibitor

S=P(N1CC1)(N1CC1)N1CC1 [THIOTEPA]
Activity [8]: Substrate
